Data as given in patent publication US10273279B2, “Protease activated receptor-1 (PAR1) derived cytoprotective polypeptides and related methods” (THE SCRIPPS RESEARCH INSTITUTE, priority 2011, dated 2019).

Columns and labels:
[1] = target: T1, endogenous PAR1 on EA.hy.926 endothelial cells (Homo sapiens, UniProt P25116); assay: On cell Western (OCW) immunoassay of PAR1 cleavage on EA.hy.926 endothelial cells; assay type: cell-based; settings: 1 hr at 4° C., 0.5 nM thrombin or 25 nM APC
T1 construct: untransfected EA.hy.926 endothelial cells expressing endogenous EPCR and PAR1; host or cells: EA.hy.926 endothelial cells
T1 sequence (P25116 22-425): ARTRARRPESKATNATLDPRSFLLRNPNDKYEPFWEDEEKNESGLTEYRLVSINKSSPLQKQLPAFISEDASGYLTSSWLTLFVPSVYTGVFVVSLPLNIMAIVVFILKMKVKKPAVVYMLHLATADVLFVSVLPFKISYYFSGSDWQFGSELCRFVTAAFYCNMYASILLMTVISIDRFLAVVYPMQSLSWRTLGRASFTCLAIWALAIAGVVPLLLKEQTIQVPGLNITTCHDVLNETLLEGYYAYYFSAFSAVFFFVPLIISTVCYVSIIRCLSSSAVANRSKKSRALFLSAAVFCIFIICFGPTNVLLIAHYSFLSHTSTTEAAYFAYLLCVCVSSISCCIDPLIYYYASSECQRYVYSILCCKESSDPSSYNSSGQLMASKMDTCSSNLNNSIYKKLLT
Description: Subsequently, these antibodies were used in an on cell Western (OCW) immunoassay on EA.hy.926 endothelial cells to determine whether APC cleaves PAR1 at Arg^46 in the presence of endogenous PAR1 and EPCR expression. […] Incubations were performed at 4° C. to minimize receptor recycling and internalization. After fixation and staining, antibody signals were normalized for total cell number using the cell permeable nuclear dye Draq5 and antibody signals for the goat anti-PAR1 antibodies (Ab87 and Origene) and ATAP2 were expressed as a fraction of the signal obtained for WEDE15 reflecting the total PAR1 present on the cell surface.
Detailed methods and steps used for the study shown in FIG. 5 are as follows: EA.hy.926 cells (ATCC: CRL-2922) were grown in black clear bottom 96 well plates (Nunc) in DMEM (Invitrogen #12430) supplemented with glutamax (Invitrogen #35050) and 10% FBS (Hyclone #35-011-CV) in a 37° C. cell incubator with a humidified atmosphere and 5% CO2 in air until confluency. […] After final washing with PBS/0.1% Tween, IR fluorescence of bound antibodies was determined using the Odyssey (Licor). Background fluorescence was determined by omitting the primary antibody and subtracting background values from all observed values.

[2] = test system: VEGF-induced vascular leakage in SKH1 hairless mice; assay: In vivo vascular permeability assay (modified Miles assay, VEGF-induced Evans blue extravasation in skin); set-up: species or system mouse; settings: for decrease in vascular leakage compared to PBS control: 125 μg peptide i.v. retro-orbital 5 min before s.c. VEGF165, Evans blue at 700 nm; for vascular leakage in the absence of VEGF: BSA vehicle sites, 125 μg peptide i.v.
Description: To probe whether TR47-66 could induce vascular protective effects in vivo, a modification of the modified Miles assay was used in which vascular permeability is measured by the extravasation of Evans blue dye in the skin induced by local subcutaneous injection of vascular endothelial growth factor (VEGF)165. Immunocompetent SKH1 hairless mice were used to avoid the need for hair removal that often can result in artifactual leakage due to inflammation of the skin. Evans blue extravasation in the skin was quantified using the Odyssey near-infrared fluorescent imager at 700 nm. TR47-66 peptide or the control scrTR47 peptide were injected i.v. in the retro-orbital sinus 5 min before local subcutaneous injection of recombinant murine VEGF or BSA control and 30 min after i.v. administration of Evans blue. In the absence of TR47-66 (PBS control), VEGF induced clearly distinguishable areas of Evans blue extravasation, whereas after injection of BSA vehicle control only the needle points marking the injection site could be observed. Quantification of Evans blue extravasation by near infrared fluorescence at 700 nm eliminated the time consuming need for Evans blue extraction from punch biopsy and provided reliable and reproducible results. […] Thus, like APC, the TR47 peptide causes activation of Rac1, stabilizes endothelial barriers in vitro, and in vivo can markedly reduce vascular leakage. The study was approved by the Institutional Animal Care and Use Committee of The Scripps Research Institute and complied with National Institutes of Health guidelines. SK1H1-E hairless male (6 to 8 weeks old) were from Charles River Labs (Wilmington, Mass.). Vascular permeability was determined using a known VEGF-induced leakage model (Sanna et al., Nat. Chem. Biol. 2006; 2(8):434-441; and Miles et al., J Physiol 1952; 118(2):228-257) with some modifications. Briefly, 100 μL of a sterile-filtered solution containing 0.5% (w/v) Evans blue (Sigma) in 0.9% NaCl (Sigma) was injected in isofluran-anesthetized mice. After 30 min, 50 μL of peptides (125 μg; TR47 or scrTR47) or PBS were injected intravenously in the retro-orbital sinus of mice anesthetized with Ketamin-Xylazin (100 and 10 mg/kg, respectively). After 5 min, mice received subcutaneously 15 μL of 75 ng/injection recombinant mouse VEGF165 (BioVision, Milpitas, Calif.) in 0.1% BSA-PBS (3 sites on the right side of the abdomen) or vehicle (2 sites on the left side). After 30 min, mice were sacrificed, photographed, and Evans blue extravasation in the skin was determined using the Odyssey Imager (LI-COR Biosciences, Lincoln, Nebr.) in the 700 nm channel with 4 mm offset. Quantification of the intensity of the Evans blue dye signal was done using the Odyssey Application Software version 3.0. […]

| Substance | decrease of ATAP2 signal compared to WEDE15 [1] | decrease in vascular leakage compared to PBS control [2] | vascular leakage in the absence of VEGF [2] |
| --- | --- | --- | --- |
| thrombin | not significantly different | – | – |
| GDENENEKPNWYELKEPDSF (scrambled sequence) [scr-TR47-66, control scrambled TR47-66 peptide containing scrambled residues 47-66, reference compound] | – | indiscriminate from PBS control | Neither TR47-66 nor scrTR47 affected vascular leakage |
| APC: Activated Protein C, serine protease with anticoagulant and cytoprotective cell signaling activities | 50% | – | – |
| NPNDKYEPFWEDEEKNESGL (listed as Homo sapiens) [TR47-66] | – | 45% | Neither TR47-66 nor scrTR47 affected vascular leakage |
